Measured values taken from patent US9932637B2, “Genetic polymorphisms associated with cardiovascular disorders and drug response, methods of detection and uses thereof” (CELERA CORPORATION, priority 2003, dated 2018).

Test system: patients with prior myocardial infarction (CARE study)
Experiment: CARE: association of SNPs with pravastatin treatment in RMI prevention (genotypic RR in placebo and statin strata; Table 10)
Type: in vivo, human
Description: In order to identify genetic markers associated with acute coronary events (e.g. MI, stroke, unstable angina, congestive heart failure, etc.) or response to statin treatment for the prevention of coronary events, samples from the Cholesterol and Recurrent Events (CARE) study (a randomized multicentral double-blinded trial on secondary prevention of acute coronary events with pravastatin) (Sacks et al., 1991, Am. J. Cardiol. 68: 1436-1446) were genotyped. A well-documented myocardial infarction (MI) was one of the enrollment criteria for entry into the CARE study. Patients were enrolled in the CARE trial from 80 participating study centers. […] Patients were randomized to receive either 40 mg of pravastatin once daily or a matching placebo. The primary endpoint of the trial was death from coronary heart disease and the median duration of follow-up was 5.0 years (range, 4.0 to 6.2 years). […] Secondary endpoints of other related cardiovascular or metabolic disease events, and changes in clinical variables were also recorded in pravastatin-treated and placebo groups. All individuals included in the study had signed a written informed consent form and the study protocol was approved by the respective Institutional Review Boards (IRBs).
For genotyping SNPs in CARE patient samples, DNA was extracted from blood samples using conventional DNA extraction methods such as the QIA-amp kit from Qiagen. Genotypes were obtained on an ABI PRISM® 7900HT Sequence Detection PCR system (Applied Biosystems, Foster City, Calif.) by kinetic allele-specific PCR, similar to the method described by Germer et al. (Germer S., Holland M. J., Higuchi R. 2000, Genome Res. 10: 258-266).
For statistical analysis of association of SNPs with pravastatin treatment in RMI prevention (Table 10), effect sizes were estimated through genotypic RR, including 95% CIs. Homogeneity of Cochran-Mantel-Haenszel odds ratios was tested across pravastatin and placebo strata using the Wald test. […] (this adjustment supports independence of the SNP association from conventional risk factors). This table also provides the frequency data for the at risk allele in the columns labeled “Case Y PRIMER ALLELE Nucleotide Frequency” and “Control Y PRIMER ALLELE Nucleotide Frequency”. Allele frequencies for the cases and controls ≤0.49 indicate that the at-risk allele is the minor allele. Allele frequencies ≥0.50 indicate that the at-risk allele is the major allele. An example of a SNP associated with increased risk for an adverse cardiovascular event in the placebo group using a dominant genotypic test is hCV25644901. […] However, this same SNP was protective in the statin treated group with a RR of 0.58. An example of a SNP associated with an adverse cardiovascular event in the placebo group using the allelic association test is hCV16044337 with a RR of 1.87 for the homozygous AA genotype. This same genotype was protective in the statin treated group with a RR of 0.56.

Compound: CC[C@H](C)C(=O)O[C@H]1C[C@H](O)C=C2C=C[C@H](C)[C@H](CC[C@@H](O)C[C@@H](O)CC(=O)O)[C@H]21 [pravastatin]
- RR (relative risk for RMI) (HSPG2 hCV16172339, Het(TC) stratum, Statin vs Placebo, covars none): 0.37
- RR (relative risk for RMI) (HSPG2 hCV16172339, Maj Hom (CC) stratum, Statin vs Placebo, covars none): 0.80
- RR (relative risk for RMI) (HSPG2 hCV16172339, Statin stratum, het (TC)vs. ref(CC), covars none): 0.66
- RR (relative risk for RMI) (IL4R hCV2351160, Het(GA) stratum, Statin vs Placebo, covars HX_SMOKE): 0.57
- RR (relative risk for RMI) (IL4R hCV2351160, Maj Hom(AA) stratum, Statin vs Placebo, covars HX_SMOKE): 0.85
- RR (relative risk for RMI) (IL4R hCV2351160, Min Hom(GG) stratum, Statin vs Placebo, covars HX_SMOKE): 0.36
- RR (relative risk for RMI) (IL4R hCV2351160, Statin stratum, het(GA) vs. ref(AA), covars HX_SMOKE): 0.76
- RR (relative risk for RMI) (IL4R hCV2351160, Statin stratum, hom (GG)vs. ref(AA), covars HX_SMOKE): 0.61
- RR (relative risk for RMI) (IL4R hCV2769554, Het(GA) stratum, Statin vs Placebo): 0.64
- RR (relative risk for RMI) (IL4R hCV2769554, Maj Hom(AA) stratum, Statin vs Placebo): 0.59
- RR (relative risk for RMI) (IL4R hCV2769554, Min Hom(GG) stratum, Statin vs Placebo): 1.56
- RR (relative risk for RMI) (IL4R hCV2769554, Statin stratum, het(GA) vs. ref(AA)): 1.17
- RR (relative risk for RMI) (IL4R hCV2769554, Statin stratum, hom(GG) vs. ref(AA)): 1.26
- RR (relative risk for RMI) (ITGA9 hCV3215409, Het(GA) stratum, Statin vs Placebo): 0.86
- RR (relative risk for RMI) (ITGA9 hCV3215409, Maj Hom(AA) stratum, Statin vs Placebo): 0.84
- RR (relative risk for RMI) (ITGA9 hCV3215409, Min Hom(GG) stratum, Statin vs Placebo): 0.30
- RR (relative risk for RMI) (ITGA9 hCV3215409, Statin stratum, het (GA)vs. ref(AA)): 1.22
- RR (relative risk for RMI) (ITGA9 hCV3215409, Statin stratum, hom(GG) vs. ref(AA)): 0.54
- RR (relative risk for RMI) (LAMA2 hCV16047108, Het (GA) stratum, Statin vs Placebo): 1.31
- RR (relative risk for RMI) (LAMA2 hCV16047108, Maj Hom (AA) stratum, Statin vs Placebo): 0.63
- RR (relative risk for RMI) (LAMA2 hCV16047108, Statin stratum, het(GA) vs. ref (AA)): 2.02
- RR (relative risk for RMI) (LAMA2 hCV16047108, Statin stratum, hom(GG) vs. ref (AA)): 4.97
- RR (relative risk for RMI) (LPA hCV11225994, Het(GA) stratum, Statin vs Placebo): 1.02
- RR (relative risk for RMI) (LPA hCV11225994, Maj Hom(GG) stratum, Statin vs Placebo): 0.62
- RR (relative risk for RMI) (LPA hCV11225994, Min Hom(AA) stratum, Statin vs Placebo): 1.33
- RR (relative risk for RMI) (LPA hCV11225994, Statin stratum, het(GA) vs. ref (GG)): 1.06
- RR (relative risk for RMI) (LPA hCV11225994, Statin stratum, hom (AA)vs. ref(GG)): 2.34
- RR (relative risk for RMI) (MACF1 hCV3112686, Het(GC) stratum, Statin vs Placebo, covars HX_SMOKE): 0.71
- RR (relative risk for RMI) (MACF1 hCV3112686, Maj Hom(CC) stratum, Statin vs Placebo, covars HX_SMOKE): 0.96
- RR (relative risk for RMI) (MACF1 hCV3112686, Min Hom(GG) stratum, Statin vs Placebo, covars HX_SMOKE): 0.42
- RR (relative risk for RMI) (MACF1 hCV3112686, Statin stratum, het(GC) vs. ref(CC), covars HX_SMOKE): 0.98
- RR (relative risk for RMI) (MACF1 hCV3112686, Statin stratum, hom(GG) vs. ref(CC), covars HX_SMOKE): 0.60
- RR (relative risk for RMI) (NPC1 hCV25472673, Het(TC) stratum, Statin vs Placebo, covars none): 0.61
- RR (relative risk for RMI) (NPC1 hCV25472673, Maj Hom(TT) stratum, Statin vs Placebo, covars none): 1.08
- RR (relative risk for RMI) (NPC1 hCV25472673, Statin stratum, het(TC) vs. ref(TT), covars none): 0.76
- RR (relative risk for RMI) (NPC1 hCV25472673, Statin stratum, hom(CC) vs. ref(TT), covars none): 0.87
- RR (relative risk for RMI) (PLAB hCV7494810, Het(GC) stratum, Statin vs Placebo, covars HX_SMOKE): 0.46
- RR (relative risk for RMI) (PLAB hCV7494810, Maj Hom(CC) stratum, Statin vs Placebo, covars HX_SMOKE): 0.94
- RR (relative risk for RMI) (PLAB hCV7494810, Min Hom(GG) stratum, Statin vs Placebo, covars HX_SMOKE): 0.75
- RR (relative risk for RMI) (PLAB hCV7494810, Statin stratum, het(GC) vs. ref(CC), covars HX_SMOKE): 0.67
- RR (relative risk for RMI) (PLAB hCV7494810, Statin stratum, hom(GG) vs. ref(CC), covars HX_SMOKE): 0.68
- RR (relative risk for RMI) (PPOX hCV25922816, Het(GA) stratum, Statin vs Placebo): 0.42
- RR (relative risk for RMI) (PPOX hCV25922816, Maj Hom(GG) stratum, Statin vs Placebo): 0.82
- RR (relative risk for RMI) (PPOX hCV25922816, Statin stratum, het(GA) vs. ref(GG)): 0.64
- RR (relative risk for RMI) (PTPRJ hCV8895373, Het(GA) stratum, Statin vs Placebo): 1.07
- RR (relative risk for RMI) (PTPRJ hCV8895373, Maj Hom(GG) stratum, Statin vs Placebo): 0.60
- RR (relative risk for RMI) (PTPRJ hCV8895373, Min Hom(AA) stratum, Statin vs Placebo): 1.62
- RR (relative risk for RMI) (PTPRJ hCV8895373, Statin stratum, het(GA) vs. ref (GG)): 1.43
- RR (relative risk for RMI) (PTPRJ hCV8895373, Statin stratum, hom(AA)vs. ref(GG)): 1.14
- RR of adverse cardiovascular event in the statin treated group (hCV16044337, homozygous AA genotype): 0.56
- RR of adverse cardiovascular event in the statin treated group (hCV25644901, dominant genotype (GG or GA)): 0.58
